Test results from patent publication US20240199598A1 (MITOIMMUNE THERAPEUTICS INC., priority 2021, published 2024).

Tests used:
[1] = Stability test of Crystalline form III of sulfate (light, dark, 60° C., 40° C./75% RH); assay type: physicochemical
Protocol: The chemical and physical stability of Crystalline form III were studied under conditions of light, light-shielding, 60° C. and 40° C./75% RH for 1 month. […] In the light stability test, the crystalline form was stored in a light stability test chamber without a lid and thus exposed to a total illuminance of 1.2 million lux-hr, and a sample vial completely covered with an aluminum foil was regarded as a light-shielded control (Dark control). Appearance by visual observation for 2 weeks, 1 month, 2 months and 3 months was recorded, and purity assessment and XPRD data collection for residual solid contents were performed.

[2] = Persistence of Crystalline form VIII under nitrogen and on exposure to air (XRPD); assay type: physicochemical
Protocol: A novel crystalline form was found by heating Crystalline form IV to remove water and maintaining the same for 10 minutes and named Crystalline form VIII.

[3] = Physicochemical stability test of free form and 5 salts (60° C., 40° C./75% humidity, light); conditions: for Final purity: HPLC; for Chemical stability (purity change %/1 w), 40° C./75% RH / Chemical stability (purity change %/1 w), 60° C. / Chemical stability (purity change %/1 w), Light stability: summary Table 9; for Sensitivity to heat, humidity and light conditions (in words): 40° C./75% humidity
Protocol: In the case of a light stability test, the vial was stored in a light stability test chamber while being not closed with a lid, and exposed to a total illuminance of 1.2 million lux-hr. A vial light-shielded with aluminum foil was used as an experimental control (Dark control). For stability assessment, state assessment by visual observation, purity assessment using HPLC, and crystalline form assessment using XRPD were conducted, and results thereof are shown in Table 7. […] In FIGS. 19 to 30, “Light” represents light irradiation condition results.

[4] = Oral administration pharmacokinetic test using mice; conditions: mice, oral; for AUClast / Cmax / Tmax / t½: 10 mg/kg; for Pharmacokinetic test, t½: summary Table 9
[5] = Dark control (light-shielded vial)

O=S(=O)(O)O.O=S1(=O)CCN(Cc2cc(NC3CCOCC3)c3[nH]c(-c4ccccc4)cc3c2)CC1
Area (%), impurity peak 3 (RRT 0.67) ([1]; 1.2 million lux-hr): 0.226% | Area (%), impurity peak 10 (RRT 1.24) ([1]; 1.2 million lux-hr): 0.221% | Area (%), impurity peak 12 (RRT 1.42) ([1]; 1.2 million lux-hr): 0.073% | Area of Sulfate (%), peak 7 (RRT 1.00, main peak) ([1]; 1.2 million lux-hr): 99.382% | Area (%), impurity peak 2 (RRT 0.63) ([1]; 40° C./75% RH, 1 M): 0.183% | Area (%), impurity peak 4 (RRT 0.68) ([1]; 40° C./75% RH, 1 M): 0.061% | Area (%), impurity peak 6 (RRT 0.91) ([1]; 40° C./75% RH, 1 M): 0.102% | Area (%), impurity peak 9 (RRT 1.12) ([1]; 40° C./75% RH, 1 M): 0.518% | Area (%), impurity peak 11 (RRT 1.32) ([1]; 40° C./75% RH, 1 M): 0.149% | Area of Sulfate (%), peak 7 (RRT 1.00, main peak) ([1]; 40° C./75% RH, 1 M): 98.711% | Area (%), impurity peak 1 (RRT 0.50) ([1]; 40° C./75% RH, 2 W): 0.069% | Area (%), impurity peak 3 (RRT 0.67) ([1]; 40° C./75% RH, 2 W): 0.226% | Area (%), impurity peak 10 (RRT 1.24) ([1]; 40° C./75% RH, 2 W): 0.321% | Area (%), impurity peak 12 (RRT 1.42) ([1]; 40° C./75% RH, 2 W): 0.084% | Area of Sulfate (%), peak 7 (RRT 1.00, main peak) ([1]; 40° C./75% RH, 2 W): 98.769% | Area (%), impurity peak 2 (RRT 0.63) ([1]; 60° C., 1 M): 0.168% | Area (%), impurity peak 4 (RRT 0.68) ([1]; 60° C., 1 M): 0.056% | Area (%), impurity peak 9 (RRT 1.12) ([1]; 60° C., 1 M): 0.325% | Area (%), impurity peak 11 (RRT 1.32) ([1]; 60° C., 1 M): 0.088% | Area of Sulfate (%), peak 7 (RRT 1.00, main peak) ([1]; 60° C., 1 M): 99.247% | Area (%), impurity peak 3 (RRT 0.67) ([1]; 60° C., 2 W): 0.231% | Area (%), impurity peak 5 (RRT 0.82) ([1]; 60° C., 2 W): 0.052% | Area (%), impurity peak 8 (RRT 1.11) ([1]; 60° C., 2 W): 0.114% | Area (%), impurity peak 10 (RRT 1.24) ([1]; 60° C., 2 W): 0.211% | Area (%), impurity peak 12 (RRT 1.42) ([1]; 60° C., 2 W): 0.054% | Area of Sulfate (%), peak 7 (RRT 1.00, main peak) ([1]; 60° C., 2 W): 99.237% | Area (%), impurity peak 3 (RRT 0.67) ([1]; Dark control): 0.209% | Area (%), impurity peak 8 (RRT 1.11) ([1]; Dark control): 0.069% | Area (%), impurity peak 12 (RRT 1.42) ([1]; Dark control): 0.078% | Area of Sulfate (%), peak 7 (RRT 1.00, main peak) ([1]; Dark control): 99.326% | Area (%), impurity peak 3 (RRT 0.67) ([1]; Initial): 0.204% | Area (%), impurity peak 8 (RRT 1.11) ([1]; Initial): 0.069% | Area (%), impurity peak 10 (RRT 1.24) ([1]; Initial): 0.215% | Area (%), impurity peak 12 (RRT 1.42) ([1]; Initial): 0.08% | Area of Sulfate (%), peak 7 (RRT 1.00, main peak) ([1]; Initial): 99.319%

O=S1(=O)CCN(Cc2cc(NC3CCOCC3)c3[nH]c(-c4ccccc4)cc3c2)CC1 [Crystalline form VIII]
Time until the crystalline form disappeared ([2]; exposed to air, changes to Crystalline form IV): ≤ 1 h | Persistence of the crystalline form (in words) ([2]; nitrogen filling protection after cooling to 25° C.): maintained upon nitrogen filling protection after cooling to 25 °C

Cl.O=S1(=O)CCN(Cc2cc(NC3CCOCC3)c3[nH]c(-c4ccccc4)cc3c2)CC1 [Hydrochloride]
Assay ([3]; 1.2 million lux-hr): 108.65% | Purity change ([3]; 1.2 million lux-hr): 0% | XRPD patterns ([3]; 1.2 million lux-hr): Pattern 1-I | Final purity ([3]; 1.2 million lux-hr): 99.95% | Appearance ([3]; 40° C./75% RH, 1 w): White powder | Assay ([3]; 40° C./75% RH, 1 w): 109.18% | Purity change ([3]; 40° C./75% RH, 1 w): −0.55% | XRPD patterns ([3]; 40° C./75% RH, 1 w): Pattern 1-I | Final purity ([3]; 40° C./75% RH, 1 w): 99.40% | Chemical stability (purity change %/1 w), 40° C./75% RH ([3]; 40° C./75% RH, 1 w): −0.05% | Appearance ([3]; 60° C., 1 w): White powder | Assay ([3]; 60° C., 1 w): 110.29% | Purity change ([3]; 60° C., 1 w): +0.05% | XRPD patterns ([3]; 60° C., 1 w): Pattern 1-I | Final purity ([3]; 60° C., 1 w): 100.0% | Chemical stability (purity change %/1 w), 60° C. ([3]; 60° C., 1 w): 0.18% | Sensitivity to heat, humidity and light conditions (in words) ([3]; 60° C., 1.2 million lux-hr): sensitive under a humidity condition | Assay ([3]; Dark control): 108.99% | Purity change ([3]; Dark control): +0.05% | XRPD patterns ([3]; Dark control): Pattern 1-I | Appearance [3, 5]: White powder | Final purity ([3]; Dark control): 100.0% | Chemical stability (purity change %/1 w), Light stability [3]: 0% | AUClast [4]: 12261.43 ng·h/mL | Cmax [4]: 2381.1 ng/mL | Tmax [4]: 120 min | t½ [4]: 3.0 h | Pharmacokinetic test, t½ [4]: 3 h

O=C(O)/C=C\C(=O)O.O=S1(=O)CCN(Cc2cc(NC3CCOCC3)c3[nH]c(-c4ccccc4)cc3c2)CC1 [Maleate]
Assay ([3]; 1.2 million lux-hr): 109.56% | Purity change ([3]; 1.2 million lux-hr): −0.17% | XRPD patterns ([3]; 1.2 million lux-hr): Pattern 7-I | Final purity ([3]; 1.2 million lux-hr): 96.86% | Appearance ([3]; 40° C./75% RH, 1 w): Yellow powder | Assay ([3]; 40° C./75% RH, 1 w): 108.85% | Purity change ([3]; 40° C./75% RH, 1 w): −0.77% | XRPD patterns ([3]; 40° C./75% RH, 1 w): Pattern 7-I | Final purity ([3]; 40° C./75% RH, 1 w): 96.26% | Chemical stability (purity change %/1 w), 40° C./75% RH ([3]; 40° C./75% RH, 1 w): −0.77% | Appearance ([3]; 60° C., 1 w): Yellow powder | Assay ([3]; 60° C., 1 w): 110.00% | Purity change ([3]; 60° C., 1 w): −0.44% | XRPD patterns ([3]; 60° C., 1 w): Pattern 7-I | Final purity ([3]; 60° C., 1 w): 96.59% | Chemical stability (purity change %/1 w), 60° C. ([3]; 60° C., 1 w): −0.44% | Sensitivity to heat, humidity and light conditions (in words) ([3]; 60° C., 1.2 million lux-hr): sensitive under all conditions including heat, humidity and light irradiation conditions | Assay ([3]; Dark control): 109.66% | Purity change ([3]; Dark control): +0.01% | XRPD patterns ([3]; Dark control): Pattern 7-I | Appearance [3, 5]: Yellow powder | Final purity ([3]; Dark control): 97.04% | Chemical stability (purity change %/1 w), Light stability [3]: −0.17% | AUClast [4]: 15780.45 ng·h/mL | Cmax [4]: 3115.9 ng/mL | Tmax [4]: 30 min | t½ [4]: 2.8 h | Pharmacokinetic test, t½ [4]: 3 h

CS(=O)(=O)O.O=S1(=O)CCN(Cc2cc(NC3CCOCC3)c3[nH]c(-c4ccccc4)cc3c2)CC1 [Mesylate]
Assay ([3]; 1.2 million lux-hr): 102.69% | Purity change ([3]; 1.2 million lux-hr): −0.82% | XRPD patterns ([3]; 1.2 million lux-hr): Pattern 4-I | Final purity ([3]; 1.2 million lux-hr): 99.18% | Purity decrease ([3]; 40° C. RH for 1 week): ≥ 3% | Appearance ([3]; 40° C./75% RH, 1 w): White powder | Assay ([3]; 40° C./75% RH, 1 w): 101.35% | Purity change ([3]; 40° C./75% RH, 1 w): −3.29% | XRPD patterns ([3]; 40° C./75% RH, 1 w): Pattern 4-I | Final purity ([3]; 40° C./75% RH, 1 w): 96.71% | Chemical stability (purity change %/1 w), 40° C./75% RH ([3]; 40° C./75% RH, 1 w): −3.29% | Appearance ([3]; 60° C., 1 w): White powder | Assay ([3]; 60° C., 1 w): 107.36% | Purity change ([3]; 60° C., 1 w): 0% | XRPD patterns ([3]; 60° C., 1 w): Pattern 4-I | Final purity ([3]; 60° C., 1 w): 100.0% | Chemical stability (purity change %/1 w), 60° C. ([3]; 60° C., 1 w): 0% | Sensitivity to heat, humidity and light conditions (in words) ([3]; 60° C., 1.2 million lux-hr): sensitive under humidity and light conditions | Assay ([3]; Dark control): 103.03% | Purity change ([3]; Dark control): 0% | XRPD patterns ([3]; Dark control): Pattern 4-I | Appearance [3, 5]: White powder | Final purity ([3]; Dark control): 100.0% | Chemical stability (purity change %/1 w), Light stability [3]: −0.82% | AUClast [4]: 10119.7 ng·h/mL | Cmax [4]: 2595.2 ng/mL | Tmax [4]: 30 min | t½ [4]: 2.3 h | Pharmacokinetic test, t½ [4]: 2 h

Cc1ccc(S(=O)(=O)O)cc1.O=S1(=O)CCN(Cc2cc(NC3CCOCC3)c3[nH]c(-c4ccccc4)cc3c2)CC1 [Tosylate]
Assay ([3]; 1.2 million lux-hr): 105.78% | Purity change ([3]; 1.2 million lux-hr): −0.24% | XRPD patterns ([3]; 1.2 million lux-hr): Pattern 6-I | Final purity ([3]; 1.2 million lux-hr): 98.77% | Appearance ([3]; 40° C./75% RH, 1 w): White powder | Assay ([3]; 40° C./75% RH, 1 w): 107.73% | Purity change ([3]; 40° C./75% RH, 1 w): −0.01% | XRPD patterns ([3]; 40° C./75% RH, 1 w): Pattern 6-I | Final purity ([3]; 40° C./75% RH, 1 w): 99.00% | Chemical stability (purity change %/1 w), 40° C./75% RH ([3]; 40° C./75% RH, 1 w): −0.01% | Appearance ([3]; 60° C., 1 w): White powder | Assay ([3]; 60° C., 1 w): 108.33% | Purity change ([3]; 60° C., 1 w): −0.05% | XRPD patterns ([3]; 60° C., 1 w): Pattern 6-I | Final purity ([3]; 60° C., 1 w): 98.96% | Chemical stability (purity change %/1 w), 60° C. ([3]; 60° C., 1 w): −0.05% | Sensitivity to heat, humidity and light conditions (in words) ([3]; 60° C., 1.2 million lux-hr): sensitive to light | Assay ([3]; Dark control): 108.98% | Purity change ([3]; Dark control): −0.03% | XRPD patterns ([3]; Dark control): Pattern 6-I | Appearance [3, 5]: White powder | Final purity ([3]; Dark control): 98.98% | Chemical stability (purity change %/1 w), Light stability [3]: −0.24% | AUClast [4]: 18850.98 ng·h/mL | Cmax [4]: 3151.3 ng/mL | Tmax [4]: 30 min | t½ [4]: 2.8 h | Pharmacokinetic test, t½ [4]: 3 h
